Laboratory results from ChEMBL document CHEMBL1201862, “PubChem BioAssay data set” (2004).
Calls of active or inactive are those of the source.

What was measured:
[1] = target: T1, G-protein coupled receptor 55 (Homo sapiens, UniProt Q9Y2T6); assay: selective activators of receptor GPR55 – imaging, U2OS cells, beta-arrestin-GFP redistribution, primary screen (AID 1961); type: functional
[2] = target: T2, Cannabinoid receptor 2 (Homo sapiens, UniProt P34972); assay: SAR analysis of antagonists of the Cannabinoid Receptor 2 using an Image-Based Assay - Set 2. [Related pubchem assays (depositor defined):AID1961, AID1965]; type: functional
[3] = target: T1, G-protein coupled receptor 55; assay: SAR analysis of selective Agonists of GPR55 using an Image-Based Assay - Set 2. [Related pubchem assays (depositor defined):AID1961, AID1965]; type: functional
[4] = target: T2, Cannabinoid receptor 2; assay: SAR analysis of agonists of the Cannabinoid Receptor 2 using an Image-Based Assay - Set 2. [Related pubchem assays (depositor defined):AID1961, AID1965]; type: functional
[5] = target: T3, G-protein coupled receptor 35 (Homo sapiens, UniProt Q9HC97); assay: SAR analysis of Agonists of the GPR35 Receptor using an Image-Based Assay - Set 3. [Related pubchem assays (depositor defined):AID1961, AID1965]; type: functional
[6] = target: T4, Cannabinoid receptor 1 (Homo sapiens, UniProt P21554); assay: SAR analysis of antagonists of the Cannabinoid Receptor 1 using an Image-Based Assay - Set 3. [Related pubchem assays (depositor defined):AID1961, AID1965]; type: functional
[7] = target: T4, Cannabinoid receptor 1; assay: SAR analysis of agonists of the Cannabinoid Receptor 1 using an Image-Based Assay - Set 3. [Related pubchem assays (depositor defined):AID1961, AID1965]; type: functional
[8] = target: T3, G-protein coupled receptor 35; assay: SAR analysis of Antagonists of the GPR35 Receptor using an Image-Based Assay - Set 4. [Related pubchem assays (depositor defined):[…]]; type: functional
[9] = target: Bcl-2-like protein 10 (Homo sapiens, UniProt Q9HD36); assay: Bcl-B/TR3 peptide binding disruption – biochemical, fluorescence polarization, FITC-TR3 peptide, selectivity assay for Bfl-1 inhibitor project, primary screen (AID 748);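 note: fluorescence polarization from a fluorescein-labelled TR3 peptide binding purified Bcl-B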
[10] = target: Estrogen receptor beta (Homo sapiens, UniProt Q92731);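 note: recombinant ER-beta bound to coactivator SRC1 peptide in presence of estradiol agonist; inhibitors block coactivator peptide binding and lower the FRET signal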
[11] = target: Trypsin (Sus scrofa, UniProt P00761); assay: trypsin protease activity blockade – biochemical, quenched peptide fluorescence, cherry-pick, selectivity assay for Rce1 protease inhibitor project, dose response (AID 488789)
[12] = target: Eukaryotic translation initiation factor 4H (Homo sapiens, UniProt Q15056); assay: eIF4H binding inhibition – biochemical, uHTS, fluorescence polarization, translation initiation inhibitor project, primary screen (AID 2012)
[13] = target: Polyadenylate-binding protein 1 (Homo sapiens, UniProt P11940); assay: blockers of PABP interaction with poly(A) – biochemical, fluorescence polarization, […] (AID 2014)
[14] = target: DNA dC->dU-editing enzyme APOBEC-3A (Homo sapiens, UniProt P31941); assay: Dose Response confirmation of small molecule APOBEC3A DNA Deaminase Inhibitors via a fluorescence-based single-stranded DNA deaminase assay. [Related pubchem assays (depositor defined):AID493011, AID493024]; type: functional
[15] = target: DNA dC->dU-editing enzyme APOBEC-3G (Homo sapiens, UniProt Q9HC16); type: functional;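 note: Dose-response counterscreen measuring inhibition of APOBEC3G DNA deaminase activity, run while confirming APOBEC3A inhibitors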
[16] = system: Streptococcus sp. 'group A'; assay: Streptococcus pyogenes SK(-)GAS viability under kanamycin – luminescence, BacTiterGlo, confirmation, counter-screen for streptokinase expression inhibitor project, dose response (AID 1900); type: functional, organism-based
[17] = Trypanosoma cruzi growth suppression in host cells – NIH3T3 host cells, beta-gal luminescence, confirmation (AID 2044); type: functional, cell-based;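 note: intracellular parasites grown in NIH/3T3 mouse fibroblasts as host cells; luminescent beta-galactosidase reporter signal from transgenic T. cruzi replicating inside host cells; inhibitors lower the luminescence signal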
[18] = microbe, parasite or virus in culture; type: functional; conditions: Mycobacterium tuberculosis
[19] = NIH3T3 cell viability loss – ATP luminescence, mouse fibroblasts, counter-screen, dose response (AID 2010); type: functional, cell-based;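 note: cells exposed to compound for about 90 hours before reading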
[20] = system: Streptococcus; assay: GAS UMAA2166 growth inhibition – luminescence, BacTiterGlo, counter-screen for streptokinase expression inhibitor project, dose response (AID 1915); type: functional, organism-based;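 note: potency for reduction of bacterial viability or growth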
[21] = THP-1 cell cytotoxicity, dose response, cytotoxicity control for non-replicating M. tuberculosis project (AID 489025); type: functional
[22] = HepG2 cell cytotoxicity, dose response, cytotoxicity control for non-replicating M. tuberculosis project (AID 489018); type: functional; conditions: Mycobacterium tuberculosis
[23] = cells; type: functional
[24] = system: HEK293; assay: EBV LMP1 TES2 canonical NF-kB signalling blockers – cell-based, HEK293, luciferase, cherry-pick, dose response (AID 588343); type: functional; conditions: Homo sapiens
[25] = system: P388/ADR; assay: cells; type: functional; conditions: Mus musculus
[26] = system: SN12K1; assay: cells; type: functional; conditions: Homo sapiens
[27] = system: P388; assay: cells; type: functional; conditions: Mus musculus
[28] = cells

T3 sequence (Q9HC97 whole entry): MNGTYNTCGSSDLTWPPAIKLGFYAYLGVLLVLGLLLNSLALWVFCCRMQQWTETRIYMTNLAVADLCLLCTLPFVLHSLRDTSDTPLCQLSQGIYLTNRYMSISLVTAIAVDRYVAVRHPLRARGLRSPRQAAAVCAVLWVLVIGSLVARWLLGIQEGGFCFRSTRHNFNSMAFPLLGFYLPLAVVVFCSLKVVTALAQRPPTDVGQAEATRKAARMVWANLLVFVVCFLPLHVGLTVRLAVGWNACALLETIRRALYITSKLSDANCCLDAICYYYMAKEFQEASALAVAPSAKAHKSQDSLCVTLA
T1 sequence (Q9Y2T6 whole entry): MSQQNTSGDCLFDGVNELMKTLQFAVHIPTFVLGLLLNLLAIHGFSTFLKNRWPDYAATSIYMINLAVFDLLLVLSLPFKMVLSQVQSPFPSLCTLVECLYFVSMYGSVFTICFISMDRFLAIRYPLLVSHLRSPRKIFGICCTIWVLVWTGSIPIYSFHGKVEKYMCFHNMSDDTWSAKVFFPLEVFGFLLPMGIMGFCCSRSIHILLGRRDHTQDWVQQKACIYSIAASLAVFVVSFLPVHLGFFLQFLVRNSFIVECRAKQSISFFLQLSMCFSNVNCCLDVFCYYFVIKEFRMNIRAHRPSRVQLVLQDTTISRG
T2 sequence (P34972 whole entry): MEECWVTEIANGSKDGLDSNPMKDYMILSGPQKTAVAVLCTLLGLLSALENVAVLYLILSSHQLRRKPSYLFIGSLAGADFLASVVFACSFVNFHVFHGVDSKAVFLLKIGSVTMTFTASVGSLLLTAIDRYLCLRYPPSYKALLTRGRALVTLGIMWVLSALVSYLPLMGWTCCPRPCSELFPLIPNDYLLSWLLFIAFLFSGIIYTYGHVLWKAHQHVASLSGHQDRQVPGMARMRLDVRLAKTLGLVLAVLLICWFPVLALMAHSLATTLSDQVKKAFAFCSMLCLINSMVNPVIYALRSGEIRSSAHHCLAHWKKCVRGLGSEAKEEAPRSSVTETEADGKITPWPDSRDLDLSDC
T4 sequence (P21554 whole entry): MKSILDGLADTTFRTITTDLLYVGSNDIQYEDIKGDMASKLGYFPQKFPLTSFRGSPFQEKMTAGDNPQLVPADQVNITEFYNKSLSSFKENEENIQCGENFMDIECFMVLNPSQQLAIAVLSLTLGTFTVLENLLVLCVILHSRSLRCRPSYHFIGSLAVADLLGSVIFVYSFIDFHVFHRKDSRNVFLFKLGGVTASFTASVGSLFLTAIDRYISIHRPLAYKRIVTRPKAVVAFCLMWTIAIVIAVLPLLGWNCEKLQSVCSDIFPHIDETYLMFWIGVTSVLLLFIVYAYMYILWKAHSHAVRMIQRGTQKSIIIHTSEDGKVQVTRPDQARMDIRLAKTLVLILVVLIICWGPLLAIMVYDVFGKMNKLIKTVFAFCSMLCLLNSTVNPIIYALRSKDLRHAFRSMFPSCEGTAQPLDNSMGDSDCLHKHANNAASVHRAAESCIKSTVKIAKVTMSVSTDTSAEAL
Polyadenylate-binding protein 1, sequence (P11940 whole entry): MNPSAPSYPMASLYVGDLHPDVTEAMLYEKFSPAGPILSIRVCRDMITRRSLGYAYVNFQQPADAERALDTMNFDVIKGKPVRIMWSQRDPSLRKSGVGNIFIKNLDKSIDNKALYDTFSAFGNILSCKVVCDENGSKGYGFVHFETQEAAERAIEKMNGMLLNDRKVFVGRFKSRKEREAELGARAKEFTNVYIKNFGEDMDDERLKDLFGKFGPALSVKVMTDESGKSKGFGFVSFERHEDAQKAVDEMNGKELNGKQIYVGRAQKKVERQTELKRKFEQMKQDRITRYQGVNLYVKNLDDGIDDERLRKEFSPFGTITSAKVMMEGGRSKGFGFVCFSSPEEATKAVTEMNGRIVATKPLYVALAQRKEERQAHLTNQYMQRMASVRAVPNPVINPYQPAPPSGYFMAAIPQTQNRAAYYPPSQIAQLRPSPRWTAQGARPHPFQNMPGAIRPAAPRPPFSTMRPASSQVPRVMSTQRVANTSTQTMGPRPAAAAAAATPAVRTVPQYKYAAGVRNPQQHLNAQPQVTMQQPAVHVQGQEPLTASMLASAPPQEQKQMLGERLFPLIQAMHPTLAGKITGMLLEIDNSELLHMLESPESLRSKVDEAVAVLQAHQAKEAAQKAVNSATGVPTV
Estrogen receptor beta, sequence (Q92731 whole entry): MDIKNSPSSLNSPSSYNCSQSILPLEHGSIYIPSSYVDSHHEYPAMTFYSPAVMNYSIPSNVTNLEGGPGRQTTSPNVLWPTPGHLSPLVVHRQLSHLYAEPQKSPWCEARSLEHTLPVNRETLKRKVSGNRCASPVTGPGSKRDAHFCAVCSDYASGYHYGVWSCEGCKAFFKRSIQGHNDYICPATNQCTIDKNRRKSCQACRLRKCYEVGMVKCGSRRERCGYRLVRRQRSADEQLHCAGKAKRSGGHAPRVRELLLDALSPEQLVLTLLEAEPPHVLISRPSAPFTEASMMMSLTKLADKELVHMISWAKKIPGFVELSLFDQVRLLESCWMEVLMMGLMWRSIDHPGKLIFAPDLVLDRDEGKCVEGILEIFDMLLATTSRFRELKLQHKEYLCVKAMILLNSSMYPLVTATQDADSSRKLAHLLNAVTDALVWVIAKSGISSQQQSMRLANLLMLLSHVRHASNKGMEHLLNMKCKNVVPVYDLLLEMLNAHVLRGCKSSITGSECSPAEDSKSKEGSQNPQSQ
DNA dC->dU-editing enzyme APOBEC-3A, sequence (P31941 whole entry): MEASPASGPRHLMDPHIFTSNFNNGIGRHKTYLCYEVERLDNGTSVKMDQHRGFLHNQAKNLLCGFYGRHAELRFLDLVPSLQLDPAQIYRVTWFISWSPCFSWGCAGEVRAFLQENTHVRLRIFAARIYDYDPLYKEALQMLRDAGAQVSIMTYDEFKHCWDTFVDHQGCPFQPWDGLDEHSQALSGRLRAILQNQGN
Bcl-2-like protein 10, sequence (Q9HD36 whole entry): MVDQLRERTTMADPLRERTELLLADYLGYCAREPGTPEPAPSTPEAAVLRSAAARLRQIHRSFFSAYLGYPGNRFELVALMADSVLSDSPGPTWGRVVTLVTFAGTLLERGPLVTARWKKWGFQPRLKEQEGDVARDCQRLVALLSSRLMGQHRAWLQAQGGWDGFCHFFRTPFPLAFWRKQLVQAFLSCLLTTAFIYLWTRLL
Trypsin, sequence (P00761 whole entry): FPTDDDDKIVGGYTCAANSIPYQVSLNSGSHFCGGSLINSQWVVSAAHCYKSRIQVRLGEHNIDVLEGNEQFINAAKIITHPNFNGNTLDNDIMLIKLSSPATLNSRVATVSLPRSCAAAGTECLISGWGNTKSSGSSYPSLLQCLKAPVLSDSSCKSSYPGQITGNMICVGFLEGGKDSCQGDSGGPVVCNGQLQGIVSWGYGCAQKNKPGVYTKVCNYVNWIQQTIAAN
DNA dC->dU-editing enzyme APOBEC-3G, sequence (Q9HC16 whole entry): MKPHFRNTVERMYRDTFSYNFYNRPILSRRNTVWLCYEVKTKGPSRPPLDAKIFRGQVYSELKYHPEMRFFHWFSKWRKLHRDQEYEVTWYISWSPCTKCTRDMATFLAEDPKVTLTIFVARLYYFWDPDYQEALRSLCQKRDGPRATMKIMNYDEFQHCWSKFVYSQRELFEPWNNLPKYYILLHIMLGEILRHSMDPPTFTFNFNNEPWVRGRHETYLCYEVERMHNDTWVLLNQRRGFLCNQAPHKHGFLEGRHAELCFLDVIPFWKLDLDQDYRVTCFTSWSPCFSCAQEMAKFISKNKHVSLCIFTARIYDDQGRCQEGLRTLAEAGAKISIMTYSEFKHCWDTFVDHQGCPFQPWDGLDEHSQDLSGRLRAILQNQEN

## O=C(CSc1nc2ccccc2o1)N1c2ccccc2Sc2ccccc21
[1]
  EC50: > 32 µM (inactive)

## COc1ccc(S(=O)(=O)N2CCOCC2)cc1NC(=O)c1sc2cccc(F)c2c1C
[2]
  IC50: > 32 µM (inactive)
[3]
  EC50: > 32 µM (inactive)
[4]
  EC50: > 32 µM (inactive)
[5]
  EC50: > 32 µM (inactive)
[6]
  IC50: > 32 µM (inactive)
[7]
  EC50: > 32 µM (inactive)
[8]
  IC50: > 32 µM (inactive)

## CN(C)S(=O)(=O)c1ccc(N2CCCC2)c(C(=O)N2CCN(c3ccccc3)CC2)c1
[2]
  IC50: > 32 µM (inactive)
[3]
  EC50: 1.67 µM (active)
[4]
  EC50: > 32 µM (inactive)
[5]
  EC50: > 32 µM (inactive)
[6]
  IC50: > 32 µM (inactive)
[7]
  EC50: > 32 µM (inactive)
[8]
  IC50: > 32 µM (inactive)

## O=C(Nc1ccccc1C(=O)O)c1ccccc1
[9]
  IC50: > 100 µM (inactive)
[10]
  IC50: > 50 µM (not active)

## N=C(N)NC(=O)c1nc(Cl)c(N)nc1N
[11]
  AC50: 9.3 µM (active)

## C[n+]1ccccc1/C=C1\Sc2ccccc2N1CCO
[12]
  IC50: > 100 µM (inactive)
[13]
  IC50: 2.22 µM (active)
[14]
  IC50: 1.08 µM (active)
[15]
  IC50: 2.53 µM (active)

## CO[C@@]12[C@H](COC(N)=O)C3=C(C(=O)C(C)=C(N)C3=O)N1C[C@H]1[C@@H]2N1C (stereo not given in full) [PORFIROMYCIN]
[16]
  EC50: < 0.06 µM (active)
[17]
  EC50: < 0.1 µM (active)
[18]
  CC50: 28.3 µM (active)
[19]
  EC50: 6.8 µM (active)
[20]
  EC50: < 0.06 µM (active)
[21]
  CC50: 1.32 µM (active)
[22]
  CC50: > 20 µM (active)
[23]
  IC50: 0.65 µM (active)
[24]
  AC50: 4.01 µM (active)
[25]
  GI50: 7.74 µM (inactive)
[26]
  GI50: 3.9 µM (inactive)
[27]
  GI50: 1.88 µM (inactive)
[28]
  EC50: 0.088 µM (active)
